Test results taken from patent USRE50319E1, “Compounds and methods for treating cancer” (Dana-Farber Cancer Institute, Inc., priority 2017, dated 2025).
Counter-ions that a name gives are not always drawn.

Experiments:
[1] = tested on: BRCA1-deficient (HR-deficient) tumor cells; assay: Rapid Cell Titer Glo assay; type: cell-based
POLQ = POLQ (Homo sapiens, UniProt O75417); assay: γ-32P-ATP based radiometric ATPase assay; type: biochemical; conditions: for inhibition of POLQ (ATPase) activity: FIG. 2B radiometric ATPase assay
Sequence of POLQ (O75417 whole entry): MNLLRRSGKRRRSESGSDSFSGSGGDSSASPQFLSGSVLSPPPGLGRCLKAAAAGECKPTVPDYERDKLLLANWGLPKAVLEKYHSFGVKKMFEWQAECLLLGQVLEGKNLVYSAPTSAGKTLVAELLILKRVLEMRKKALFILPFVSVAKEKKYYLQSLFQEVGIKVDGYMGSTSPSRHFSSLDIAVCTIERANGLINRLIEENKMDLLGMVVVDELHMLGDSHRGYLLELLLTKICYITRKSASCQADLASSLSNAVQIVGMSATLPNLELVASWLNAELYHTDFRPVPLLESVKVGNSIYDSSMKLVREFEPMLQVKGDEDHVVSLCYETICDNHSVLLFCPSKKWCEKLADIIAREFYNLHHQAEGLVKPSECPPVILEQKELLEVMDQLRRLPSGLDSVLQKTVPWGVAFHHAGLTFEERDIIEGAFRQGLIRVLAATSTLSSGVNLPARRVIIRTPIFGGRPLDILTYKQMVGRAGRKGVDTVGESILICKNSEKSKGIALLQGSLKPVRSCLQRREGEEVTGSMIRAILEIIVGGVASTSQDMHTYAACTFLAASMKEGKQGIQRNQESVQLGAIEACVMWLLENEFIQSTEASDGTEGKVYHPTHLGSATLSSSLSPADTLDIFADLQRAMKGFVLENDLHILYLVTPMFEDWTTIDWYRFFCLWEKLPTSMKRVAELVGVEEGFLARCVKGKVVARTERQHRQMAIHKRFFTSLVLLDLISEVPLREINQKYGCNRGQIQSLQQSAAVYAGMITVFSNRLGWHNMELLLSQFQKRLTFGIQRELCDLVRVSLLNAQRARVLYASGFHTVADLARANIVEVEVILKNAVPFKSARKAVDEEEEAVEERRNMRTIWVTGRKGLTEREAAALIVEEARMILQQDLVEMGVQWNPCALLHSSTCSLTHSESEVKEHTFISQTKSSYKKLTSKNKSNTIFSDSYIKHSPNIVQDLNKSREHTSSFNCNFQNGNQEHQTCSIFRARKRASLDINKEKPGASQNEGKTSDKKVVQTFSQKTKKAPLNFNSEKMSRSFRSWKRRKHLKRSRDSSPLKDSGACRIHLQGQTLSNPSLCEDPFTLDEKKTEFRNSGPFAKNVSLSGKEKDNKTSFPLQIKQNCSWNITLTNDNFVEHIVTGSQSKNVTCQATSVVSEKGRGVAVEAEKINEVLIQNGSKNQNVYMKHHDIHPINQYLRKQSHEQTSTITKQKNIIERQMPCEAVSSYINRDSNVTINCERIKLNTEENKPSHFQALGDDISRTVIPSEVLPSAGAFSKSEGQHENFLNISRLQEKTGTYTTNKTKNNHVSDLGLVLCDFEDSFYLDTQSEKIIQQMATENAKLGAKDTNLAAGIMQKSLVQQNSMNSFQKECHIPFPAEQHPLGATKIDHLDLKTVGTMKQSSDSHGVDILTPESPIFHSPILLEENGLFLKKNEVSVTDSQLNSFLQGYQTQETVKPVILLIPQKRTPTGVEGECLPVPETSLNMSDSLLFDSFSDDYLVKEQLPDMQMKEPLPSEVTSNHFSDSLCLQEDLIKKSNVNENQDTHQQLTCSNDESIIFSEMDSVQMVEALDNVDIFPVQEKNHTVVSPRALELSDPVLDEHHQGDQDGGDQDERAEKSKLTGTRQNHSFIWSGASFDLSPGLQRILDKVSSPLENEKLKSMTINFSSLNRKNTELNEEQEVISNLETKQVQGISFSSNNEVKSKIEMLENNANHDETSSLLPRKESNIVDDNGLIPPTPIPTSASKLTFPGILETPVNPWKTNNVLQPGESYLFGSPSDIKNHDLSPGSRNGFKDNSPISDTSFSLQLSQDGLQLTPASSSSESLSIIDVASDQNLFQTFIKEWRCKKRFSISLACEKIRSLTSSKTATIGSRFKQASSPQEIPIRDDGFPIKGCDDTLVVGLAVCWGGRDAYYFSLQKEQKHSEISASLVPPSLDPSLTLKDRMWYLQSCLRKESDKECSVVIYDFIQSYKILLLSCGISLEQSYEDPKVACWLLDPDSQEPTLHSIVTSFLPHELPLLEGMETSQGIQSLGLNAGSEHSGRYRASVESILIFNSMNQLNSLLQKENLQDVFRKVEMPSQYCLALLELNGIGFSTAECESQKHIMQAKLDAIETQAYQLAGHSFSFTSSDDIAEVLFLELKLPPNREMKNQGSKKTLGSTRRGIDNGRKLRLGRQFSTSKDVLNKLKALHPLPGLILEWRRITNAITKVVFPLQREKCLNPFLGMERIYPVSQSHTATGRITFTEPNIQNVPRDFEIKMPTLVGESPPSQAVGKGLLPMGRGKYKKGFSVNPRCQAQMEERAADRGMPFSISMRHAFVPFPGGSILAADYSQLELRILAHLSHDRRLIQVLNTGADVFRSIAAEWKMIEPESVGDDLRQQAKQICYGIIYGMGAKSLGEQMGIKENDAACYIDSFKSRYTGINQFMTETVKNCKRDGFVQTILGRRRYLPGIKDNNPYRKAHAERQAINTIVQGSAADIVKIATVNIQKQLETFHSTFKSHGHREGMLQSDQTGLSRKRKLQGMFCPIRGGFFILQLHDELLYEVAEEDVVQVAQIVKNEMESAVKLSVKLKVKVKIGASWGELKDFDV
Experimental: FIG. 2C is a bar plot showing quantification of the radiometric ATPase assay showing in FIG. 2B. SMARCAL1 was used as a control ATPase to identify inhibitors that show specificity to POLQ.
100 μM novobiocin was used in the assay. MTX=Mitoxantrone; SUR=Suramin sodium salt; NVB=novobiocin; AUR=Aurintricarboxylic acid; VAND=vandetanib (EGFR inhibitor, negative control).

[2] = tested on: BRCA1-deficient tumor cells; assay: Clonogenic survival assay, BRCA1-deficient tumor cells; type: cell-based; conditions: FIG. 4, versus isogenic BRCA1-proficient cell line
yH2AX foci = yH2AX foci formation; type: cell-based; conditions: FIG. 12
BRCA1−/− RPE1 cells = assay: Clonogenic survival assay, RPE1 cells; type: cell-based; conditions: FIGS. 6 and 7
[3] = tested on: PARP inhibitor (olaparib) resistant RPE1 cells; assay: PARP inhibitor (olaparib) resistant cell lines; type: cell-based; conditions: FIG. 10
homologous recombination = assay: Homologous recombination repair assay; type: cell-based
Experimental: (§1) 10 μM concentration of each tested compound was used in the assay. Mitoxantrone and VAND kill cells.
(§2) 50 μM of each tested compound was used in the assay.

POLQ ATPase domain = POLQ ATPase domain (Homo sapiens, UniProt O75417); assay: Pull-down with novobiocin-conjugated sepharose beads, POLQ; type: binding; conditions: FIG. 15; novobiocin conjugated to sepharose beads
Sequence of POLQ ATPase domain (O75417 102-554 limits assumed): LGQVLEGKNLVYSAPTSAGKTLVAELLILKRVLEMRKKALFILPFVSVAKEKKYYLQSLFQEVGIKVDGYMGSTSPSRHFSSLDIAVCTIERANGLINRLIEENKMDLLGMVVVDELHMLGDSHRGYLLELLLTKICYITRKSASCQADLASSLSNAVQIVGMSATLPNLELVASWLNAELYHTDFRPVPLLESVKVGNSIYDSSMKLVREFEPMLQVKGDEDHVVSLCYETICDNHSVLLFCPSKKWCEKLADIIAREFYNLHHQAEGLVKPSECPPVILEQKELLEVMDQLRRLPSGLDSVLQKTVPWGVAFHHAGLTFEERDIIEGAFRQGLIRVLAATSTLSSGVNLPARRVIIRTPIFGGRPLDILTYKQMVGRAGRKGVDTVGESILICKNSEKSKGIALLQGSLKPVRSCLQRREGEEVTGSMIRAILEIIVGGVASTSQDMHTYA
From the text: FIG. 14 contains an image showing that novobiocin was successfully conjugated to sepharose beads.
The color in the left tube is attributed to the novobiocin bound to the beads.

RAD51 foci = RAD51 foci formation; type: cell-based; conditions: FIG. 11
Alt-EJ repair pathway = assay: GFP reporter assay using EJ2 repair substrate (Alt-EJ); type: cell-based
Experimental: PARP inhibitor and ATM inhibitor were used as positive controls.
as §1, §2

[4] = tested on: RPE1-p53−/− BRCA1−/− cells; assay: Apoptosis, Annexin V kit; type: cell-based; conditions: FIG. 13, analyzed 4 days after NVB

O=C(c1cc(Cc2n[nH]c(=O)c3ccccc23)ccc1F)N1CCN(C(=O)C2CC2)CC1 [olaparib]
selective killing of BRCA1-deficient (HR-deficient) tumor cells ([1]; FIG. 3): selectively kills BRCA1-deficient (HR-deficient) tumor cells

Cc1ccc(C(=O)Nc2ccc(S(=O)(=O)O)c3cc(S(=O)(=O)O)cc(S(=O)(=O)O)c23)cc1NC(=O)c1cccc(NC(=O)Nc2cccc(C(=O)Nc3cc(C(=O)Nc4ccc(S(=O)(=O)O)c5cc(S(=O)(=O)O)cc(S(=O)(=O)O)c45)ccc3C)c2)c1 [S, Suramin sodium salt]
inhibition of POLQ (ATPase) activity (POLQ): inhibited POLQ activity

CO[C@@H]1[C@@H](OC(N)=O)[C@@H](O)[C@H](Oc2ccc3c(O)c(NC(=O)c4ccc(O)c(CC=C(C)C)c4)c(=O)oc3c2C)OC1(C)C [novobiocin]
selective killing of BRCA1-deficient tumor cells [2]: selectively kills the BRCA1-deficient tumor cells | selective killing of BRCA1-deficient tumor cells ([2]; listed as Novobiocin): selectively kills BRCA1-deficient tumor cells | yH2AX foci formation (yH2AX foci): induces RAD51 and yH2AX foci formation | specific killing of BRCA1−/− RPE1 cells (BRCA1−/− RPE1 cells): specifically kills BRCA1−/− RPE1 cells | selective killing of BRCA1-deficient (HR-deficient) tumor cells ([1]; FIG. 3): selectively kills BRCA1-deficient (HR-deficient) tumor cells | selective killing of BRCA1-deficient (HR-deficient) tumor cells ([1]; FIG. 3, listed as Novobiocin): selectively kills HR-deficient cells as strongly as PARP inhibitor | inhibition of POLQ (ATPase) activity (POLQ; listed as N): inhibited POLQ activity | inhibition of POLQ (ATPase) activity (POLQ; listed as Novobiocin): inhibits the ATPase of POLQ | specificity to POLQ (POLQ; FIG. 2C, SMARCAL1 used as control ATPase): showed some specificity to POLQ | inhibition of ATPase activity of POLQ (POLQ; FIG. 5, 32P-based ATPase activity assay, 100 μM novobiocin): specifically inhibits ATPase activity of POLQ | POLQ ATPase inhibition compared with related ATPases (POLQ; versus ATPase activity of SMARCA or CHD1): inhibits the POLQ ATPase more strongly than it inhibits the ATPase activity of SMARCA or CHD1 | killing of PARP inhibitor resistant RPE1 cells [3]: kills RPE1 cells that are resistant to the PARP inhibitor | inhibition of homologous recombination (homologous recombination; FIG. 8, 10 μM): not homologous recombination | inhibition of homologous recombination (homologous recombination; FIG. 9, 50 μM): not homologous recombination | binding / pull-down of POLQ ATPase domain (POLQ ATPase domain): specifically binds to POLQ ATPase domain | RAD51 foci formation (RAD51 foci): induces RAD51 and yH2AX foci formation | inhibition of Alt-EJ (Alt-EJ repair pathway; FIG. 2D, EJ2 repair substrate GFP reporter): inhibited Alt-EJ | inhibition of alternative end-joining (Alt-EJ repair pathway; FIG. 8, 10 μM): inhibits alternative end-joining | inhibition of alternative end-joining (Alt-EJ repair pathway; FIG. 9, 50 μM): inhibits alternative end-joining | induction of apoptosis [4]: induces apoptosis specifically in RPE1-p53−/− BRCA1−/− cells

O=C1c2c(O)ccc(O)c2C(=O)c2c(NCCNCCO)ccc(NCCNCCO)c21 [Mitoxantrone]
inhibition of POLQ (ATPase) activity (POLQ): inhibited POLQ activity | cell killing in the repair assay (Alt-EJ repair pathway; FIG. 8, 10 μM): kill cells | cell killing in the repair assay (Alt-EJ repair pathway; FIG. 9, 50 μM): killed all cells

COc1cc2c(Nc3ccc(Br)cc3F)ncnc2cc1OCC1CCN(C)CC1 [VAND, vandetanib]
cell killing in the repair assay (Alt-EJ repair pathway; FIG. 8, 10 μM): kill cells | cell killing in the repair assay (Alt-EJ repair pathway; FIG. 9, 50 μM): killed all cells
